Source: patent US12286452B2, “Amphiphilic aminoglycoside connexin hemichannel inhibitors” (Texas Tech University System, priority 2018, dated 2025)
Like-named read-outs stand apart in the source and are kept apart here.

What was measured:
[1] = molecular target: T1, human Cx26 HCs (Homo sapiens, UniProt P29033); test: Cx26-dependent growth complementation assay in E. coli LB2003; assay type: cell-based
T1 construct: expressed in transfected cells; host or cells: E. coli LB2003 (carrying pREP4), transformed with pQE-Cx26, IPTG-induced
Method: These derivatives were prepared by sequential benzylation and methylation followed by reduction of azido groups or hydrogenolysis of the Bn. […] Connexin HC inhibition was conducted using a bacteria-based assay of HC function^39. In this assay, Cx26 HCs are expressed in E. coli LB2003 cells, which lack three major K^+ uptake systems (Kdp, Kup and Trk), and as a result they cannot grow in low-[K^+] media^39-41. However, growth of this E. coli strain in low-[K^+] medium can be rescued by expression of K^+-permeable channels such as connexin HCs^39, 42-43. Under the conditions of the assay (LB2003 cells expressing HCs and grown in low-K^+ medium), inhibition of the HCs reduces or abolishes growth^39, 42-43. This is a simple assay where bacterial growth in multi-well plates can be followed by measuring the absorbance at 600 nm (OD600)^29.
LB2003 cells generously provided by Dr. E. P. Bakker (Osnabruk University, Osnabruk, Germany) were transformed with the plasmid pQE-Cx26 (human Cx26 into pQE60) and pREP4. […] LB2003 cells cannot grow in low-[K^+] media because of insufficient K^+ uptake for growth due to the knockout of three key K^+ transporters (Atrk, Akup, Akdp strain)^2-4. Details and validation of the growth complementation assay have been published recently^2. In brief, competent LB2003 containing the pREP4 plasmid were transformed with pQE-Cx26. These cells were grown overnight in Luria-Bertani medium (BD, Franklin Lakes, NJ, USA) supplemented with 100 mM KCl (to allow growth) and 0.4 mg/mL ampicillin, and then washed four times with NLM (see below), to remove residual K^+ from the Luria-Bertani medium. The washed cells were resuspended in complementation growth medium to an OD600 of 0.2. NLM contained 46 mM Na2HPO4, 23 mM NaH2PO4, 8 mM (NH4)2SO4, 0.4 mM MgSO4, 0.012 mM FeSO4, 1 mM sodium citrate, 44 mM glucose and 0.006 mM thiamine hydrochloride, pH 7.0. KLM had the same composition that NLM except for the equimolar replacement of Na^+ with K^+. For growth complementation we used NLM+4 mM KCl, and Cx26 expression was induced with 0.5 mM IPTG at the time of dilution to OD600=0.2. For the assay, the cells were seeded in 96-well plates and were incubated at 30° C., with shaking at 500 rpm. OD600 was measured after 18-h incubation in a plate reader. The initial OD600=0.2 was subtracted for growth calculations. Data are presented as means±SEM. Statistically significant differences were calculated by the Student t-test for unpaired data. Data were obtained from at least 3 independent experiments, with 3 repeats per experiment.

[2] = molecular target: T2, Cx43 HCs (Homo sapiens, UniProt P17302); test: Cx43-dependent growth complementation assay in E. coli LB2003; assay type: cell-based; conditions: for Cx43/Cx26 Selectivity: IC50 Cx26/IC50 Cx43
T2 construct: expressed in transfected cells

[3] = 4″,6″-disubstituted AKs, Table 5, read-out: Cx26 IC50
[4] = K46 members, the 20th table, read-out: IC50 (μM) against Cx26
[5] = read-out: IC50, inhibition of Cx26 by kanamycin A and synthetic AGs, first Table 1
[6] = 4″,6″-disubstituted AKs, Table 5, read-out: Cx43 IC50
[7] = K46 members, the 20th table, read-out: IC50 (μM) against Cx43
[8] = the 13th table, read-out: Cx43 IC50
[9] = first Table 2, read-out: IC50, inhibition of Cx26 by synthetic AGs
[10] = the 12th table, Hill fit, mean ± SEM, some n = 1, read-out: Cx43 IC50
[11] = K members, the 21st table, read-out: Cx43 % inhibition
[12] = Table 3, read-out: Cx243% inhibition
[13] = Table 6, read-out: Cx43 (% inhibition)

T2 sequence (P17302 whole entry): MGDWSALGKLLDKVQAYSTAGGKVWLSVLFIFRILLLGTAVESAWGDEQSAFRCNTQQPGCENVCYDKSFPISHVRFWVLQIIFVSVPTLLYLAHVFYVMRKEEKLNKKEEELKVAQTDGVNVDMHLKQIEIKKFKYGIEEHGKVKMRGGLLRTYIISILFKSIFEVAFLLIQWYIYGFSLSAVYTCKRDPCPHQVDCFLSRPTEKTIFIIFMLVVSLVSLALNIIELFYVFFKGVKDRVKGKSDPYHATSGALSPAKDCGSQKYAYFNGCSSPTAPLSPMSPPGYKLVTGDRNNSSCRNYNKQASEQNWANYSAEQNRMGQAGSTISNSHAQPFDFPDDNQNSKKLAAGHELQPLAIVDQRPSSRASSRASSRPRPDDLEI

CCCCOCC1OC(OC2C(N)CC(N)C(OC3OC(CN)C(O)C(O)C3O)C2O)C(O)C(N)C1OCCCC (stereo not shown) [Compound 2]
IC50 [1, 3]: 19 ± 2 µM
IC50 [1, 4]: 19 ± 2.8 µM
IC50 [1, 5]: 19 ± 2.8 µM

CCCCCCOC[C@H]1O[C@H](O[C@@H]2[C@@H](O)[C@H](O[C@H]3O[C@H](CN)[C@@H](O)[C@H](O)[C@H]3O)[C@@H](N)C[C@H]2N)[C@H](O)[C@@H](N)[C@@H]1OCCCCCC [Compound 3]
IC50 [1, 3]: 6.2 ± 1.4 µM
IC50 [1, 4]: 6.2 ± 1.4 µM
IC50 [1, 5]: 6.2 ± 1.4 µM

CCCCCCO[C@H]1[C@H](N)[C@@H](O)[C@@H](O[C@@H]2[C@@H](O)[C@H](O[C@H]3O[C@H](CN)[C@@H](O)[C@H](O)[C@H]3O)[C@@H](N)C[C@H]2N)O[C@@H]1CO [Compound 4]
IC50 ([1]; first Table 1): 13.5 ± 1.8 µM

CCCCCCCCOC[C@H]1OC(O[C@@H]2C(N)CC(N)C(O[C@H]3OC(CN)[C@@H](O)[C@H](O)C3O)[C@@H]2O)[C@H](O)[C@H](N)C1OCCCCCCCC (stereo partly shown) [Compound 5]
IC50 [1, 3]: 13.6 ± 0.5 µM
IC50 [1, 4]: 13.6 ± 0.5 µM
IC50 [1, 5]: 13.6 ± 0.5 µM
Cx26 Imax ([1]; the 13th table): 94 ± 2%
IC50 ([1]; the 13th table, read-out: Cx26 IC50): 13.5 ± 0.5 µM
IC50 [2, 6]: 11.4 ± 4.3 µM
Cx43/Cx26 Selectivity ([2]; Table 5): 1.19
IC50 [2, 7]: 26.6 ± 7.8 µM
Cx43 Imax ([2]; the 13th table): 119 ± 8%
IC50 [2, 8]: 11.4 ± 4.3 µM

CCCCCCCCCOC[C@H]1O[C@H](O[C@H]2[C@H](O)[C@@H](O[C@H]3O[C@H](CN)[C@@H](O)[C@H](O)[C@H]3O)[C@H](N)C[C@@H]2N)[C@H](O)[C@@H](N)[C@@H]1OCCCCCCCCC [Compound 6]
IC50 [1, 3]: 18.8 ± 1.3 µM
IC50 [1, 4]: 18.8 ± 1.3 µM
IC50 [1, 5]: 18.8 ± 1.3 µM

COC1C(OC2C(N)CC(N)C(OC3OC(CN)C(OC)C(OC)C3OC)C2OC)OC(COCc2ccccc2)C(OCc2ccccc2)C1N (stereo not shown) [Compound 8, 5, 2′, 3′, 4′, 2″-Penta-O-methyl-4″,6″-di-O-benzylkanamycin]
IC50 [1, 4]: 8.4 ± 1.4 µM
IC50 [1, 5]: 8.4 ± 1.4 µM

COC1C(OC2C(N)CC(N)C(OC3OC(CN)C(OC)C(OC)C3OC)C2OC)OC(CO)C(O)C1N (stereo not shown) [Compound 9, 5, 2′, 3′, 4′, 2″-Penta-O-methyl-kanamycin]
inhibition of Cx26 HCs (in words) [1]: lack of inhibitory activity
IC50, inhibition of Cx26 by kanamycin A and synthetic AGs ([1]; first Table 1): No inhibition at 100 μM

COc1ccc(COCC2OC(OC3C(N)CC(N)C(OC4OC(CN)C(O)C(O)C4O)C3O)C(O)C(N)C2OCc2ccc(OC)cc2)cc1 (stereo not shown) [Compound 10, 4″,6″-Di-O-(4-methoxybenzyl) kanamycin]
IC50 [1, 9]: 13 ± 0.7 µM
IC50 [2, 6]: 4.1 ± 1.5 µM
Cx43/Cx26 Selectivity ([2]; Table 5, listed as 2b): 3.17
IC50 [2, 7]: 4.1 ± 1.5 µM
IC50 [2, 10]: 4.1 ± 1.5 µM

Cc1ccc(COCC2OC(OC3C(N)CC(N)C(OC4OC(CN)C(O)C(O)C4O)C3O)C(O)C(N)C2OCc2ccc(C)cc2)cc1 (stereo not shown) [Compound 11, 4″,6″-Di-O-(4-methylbenzyl) kanamycin]
IC50 [1, 9]: 4.3 ± 0.4 µM
Cx26 Imax ([1]; the 13th table): 102 ± 3%
IC50 [2, 6]: 3.1 ± 0.9 µM
Cx43/Cx26 Selectivity ([2]; Table 5): 1.39
IC50 [2, 7]: 3.1 ± 0.9 µM
Cx43 Imax ([2]; the 13th table): 80.4 ± 6%
IC50 [2, 8]: 3.1 ± 0.9 µM

NCC1OC(OC2C(N)CC(N)C(OC3OC(COCc4ccc(Cl)cc4)C(OCc4ccc(Cl)cc4)C(N)C3O)C2O)C(O)C(O)C1O (stereo not shown) [Compound 12, 4″,6″-Di-O-(4-chlorobenzyl) kanamycin]
IC50 [1, 3]: 2.5 ± 0.6 µM
IC50 [1, 4]: 2.5 ± 0.6 µM
IC50 [1, 9]: 2.5 ± 0.6 µM
IC50 [2, 6]: 17.1 ± 1.7 µM
Cx43/Cx26 Selectivity ([2]; Table 5): 0.15
IC50 [2, 7]: 20.3 µM
Cx43 Imax (maximal inhibition) ([2]; the 12th table, Hill fit): 133%
IC50 [2, 10]: 20.3 µM

NC[C@H]1O[C@H](O[C@H]2[C@H](O)[C@@H](O[C@@H]3O[C@H](COCc4ccc(F)cc4)[C@@H](OCc4ccc(F)cc4)[C@H](N)[C@H]3O)[C@H](N)C[C@@H]2N)[C@H](O)[C@@H](O)[C@@H]1O [Compound 13, 4″,6″-Di-O-(4-flurobenzyl) kanamycin]
IC50 [1, 3]: 8.1 ± 0.5 µM
IC50 [1, 4]: 8.1 ± 0.5 µM
IC50 [1, 9]: 8.1 ± 0.5 µM
IC50 [2, 6]: 26.6 ± 7.8 µM
Cx43/Cx26 Selectivity ([2]; Table 5): 0.30
IC50 [2, 7]: 26.6 ± 7.8 µM
Cx43 Imax (maximal inhibition) ([2]; the 12th table, Hill fit): 110 ± 33%
IC50 [2, 10]: 26.6 ± 7.8 µM

NCC1OC(OC2C(N)CC(N)C(OC3OC(COCc4ccc5ccccc5c4)C(OCc4ccc5ccccc5c4)C(N)C3O)C2O)C(O)C(O)C1O (stereo not shown) [Compound 14, 4″,6″-Di-O-(2-naphthalenmethyl) kanamycin]
IC50 [1, 9]: 4.9 ± 0.2 µM
IC50 [2, 6]: 6.2 ± 4.4 µM
Cx43/Cx26 Selectivity ([2]; Table 5): 1.07

Cc1ccc(S(=O)(=O)OC[C@H]2OC(OC3C(N)CC(N)C(O[C@H]4OC(CN)[C@@H](O)C(O)C4O)[C@@H]3O)[C@H](O)C(N)C2O)cc1 (stereo partly shown) [Compound K19]
inhibition at 15 µM ([1]; Table 3): 26.8 ± 1.7%
inhibition at 50 µM ([1]; Table 3): 49.2 ± 5.5%
inhibition at 15 µM [2, 11]: 38.1 ± 2.8%
inhibition at 15 µM [2, 12]: 38.1 ± 2.8%
inhibition at 50 µM [2, 11]: 51 ± 8.8%
inhibition at 50 µM [2, 12]: 51 ± 8.8%

NCC1O[C@H](O[C@@H]2C(N)C[C@@H](N)C(O[C@H]3OC(COc4ccc(-c5nc6ccccc6[nH]5)cc4)[C@@H](O)C(N)C3O)C2O)C(O)C(O)[C@@H]1O (stereo partly shown) [Compound K30]
inhibition at 15 µM [2, 11]: 8.9%
inhibition at 50 µM [2, 11]: 89.4%
IC50 [2, 10]: 8.9 µM

NCC1O[C@H](OC2C(N)CC(N)C(OC3O[C@H](COc4ccccc4)C(O)C(N)[C@H]3O)[C@H]2O)C(O)C(O)[C@@H]1O (stereo partly shown) [Compound K34]
inhibition at 15 µM ([1]; Table 3): 14.6 ± 4.3%
inhibition at 15 µM ([1]; Table 6): 14.6 ± 4.3%
inhibition at 50 µM ([1]; Table 3): 69.4 ± 4.2%
inhibition at 50 µM ([1]; Table 6): 69.4 ± 4.2%
inhibition at 15 µM [2, 11]: 36 ± 3.9%
inhibition at 15 µM [2, 12]: 36 ± 3.9%
inhibition at 15 µM [2, 13]: 36 ± 3.9%
inhibition at 50 µM [2, 11]: 46.7 ± 7.8%
inhibition at 50 µM [2, 12]: 46.7 ± 7.8%
inhibition at 50 µM [2, 13]: 46.7 ± 7.8%

NCC1O[C@H](OC2C(N)CC(N)C(OC3O[C@H](COc4ccc([N+](=O)[O-])cc4)C(O)C(N)[C@H]3O)[C@H]2O)C(O)C(O)[C@@H]1O (stereo partly shown) [Compound K36]
inhibition at 15 µM ([1]; Table 3): 35.9 ± 2.9%
inhibition at 15 µM ([1]; Table 6): 35.9 ± 2.9%
inhibition at 50 µM ([1]; Table 3): 62.6 ± 9.2%
inhibition at 50 µM ([1]; Table 6): 62.6 ± 9.2%
inhibition at 15 µM [2, 11]: 36.5 ± 0.6%
inhibition at 15 µM [2, 12]: 36.5 ± 0.6%
inhibition at 15 µM [2, 13]: 36.5 ± 0.6%
inhibition at 50 µM [2, 11]: 49.3 ± 2.2%
inhibition at 50 µM [2, 12]: 49.3 ± 2.2%
inhibition at 50 µM [2, 13]: 49.3 ± 2.2%

NC[C@@H]1O[C@H](O[C@H]2[C@@H](O)[C@H](O[C@@H]3[C@@H](O)[C@H](N)C[C@H](N)[C@H]3O[C@H]3O[C@H](CO)[C@@H](O)[C@H](O)[C@H]3N)O[C@@H]2CO)[C@H](N)[C@@H](O)[C@@H]1O [Paromomycin, reference compound]
Cx43/Cx26 Selectivity ([2]; the 16th table): 0.21
